{
  "source": "patent US20160199535A1",
  "about": "“Controlled and Localized Release of Retinoids to Improve Neointimal Hyperplasia” (VesselTek BioMedical LLC, priority 2008, published 2016)",
  "key": {"[1]": {"conditions": "cited from earlier work"}, "[2]": {"tested_on": "human monocytic THP-1 cells", "assay": "Assessment of inflammatory potential, marker expression via ELISA", "type": "cell-based", "conditions": "THP-1 cell suspension exposed to material films, LPS positive control", "method": "For assessment of inflammatory potential, a suspension of human monocytic THP-1 cells was exposed to POC, TCP, PLGA, and ePTFE films. Afterwards, the expression of tissue factor, IL-6, and TNF-α was measured via ELISA. Addition of lipopolysaccharide (LPS) to the cells was used as a positive control."}},
  "data": [
    {"molecule": "CC1=C(/C=C/C(C)=C/C=C/C(C)=C/C(=O)O)C(C)(C)CCC1", "note": "[ATRA, All-trans retinoic acid]", "values": [
      {"measurement": "solubility in dimethylsulfoxide (DMSO)", "setting": "[1]; DMSO", "value": "soluble"},
      {"measurement": "solubility in chloroform", "setting": "[1]; chloroform", "value": "soluble"},
      {"measurement": "solubility in dichloromethane", "setting": "[1]; dichloromethane", "value": "soluble"},
      {"measurement": "solubility in ethanol", "setting": "[1]; ethanol", "value": 3000, "unit": "µg/mL"},
      {"measurement": "solubility in water", "setting": "[1]; water", "value": "not readily soluble"}
    ]},
    {"molecule": "lipopolysaccharide [LPS]", "values": [
      {"measurement": "TNF-α expression", "setting": "[2]", "value": "874 ± 531"},
      {"measurement": "Tissue factor expression", "setting": "[2]", "value": "536 ± 81"}
    ]}
  ]
}
